Data from patent publication US20060247266A1, “Nitrogen-containing tricyclic compounds” (Asahi Kasei Pharma Corporation, priority 2004, published 2006).

Tests used:
[1] = tested on: respiratory tract constriction induced by ovalbumin; test: Action of suppressing respiratory tract constriction induced by antigen stimulation (Test Example 3); assay type: in vivo, Hartley guinea pigs; conditions: for respiratory tract constriction suppression action by inhalation: 0.1% ovalbumin inhalation, test compound by nebulizer inhalation over 5 minutes; for respiratory tract constriction suppressing action: ovalbumin-immunized guinea pigs, test medicament from cannula in hind leg vein, airway resistance for 15 minutes
[2] = tested on: intraocular pressure; test: Intraocular pressure reducing action (Test Example 4); assay type: in vivo, Japanese white rabbit; conditions: 50 μl of aqueous solution dropped to the left eye
Method: A Japanese white rabbit having a body weight of about 2 kg was placed in a positioner and naturalized for one week before the experiment. An ophthalmologic local anesthesant (Benoxil) was administered to the left eye, and then intraocular pressure was measured by using a tonometer (Classic 30, Solan). The initial value of the intraocular pressure was measured, then 50 μl of an aqueous solution of a test compound was dropped to the left eye at various concentrations, and the intraocular pressure was measured with passage of time.

[3] = tested on: cerebral hippocampal neurons; test: Neurite outgrowth action (Test Example 5); assay type: cell-based, Sprague-Dawley rats; conditions: neurite length 24 hours after addition
Method: From 18 day-old Sprague-Dawley rats, cerebral hippocampal neurons were prepared according to the method of Neuman et al. (Neuman, H. R. et al., J. Neurosci., 22, pp. 854-862, 2002). The prepared neurons were cultured for 24 hours according to the method of Tanaka et al. (Tanaka, H. et al., J. Cell Biol., 158 (2), pp. 321-329, 2002), then the medium was exchanged with fresh medium, and test medicaments of various concentrations or equivalent amounts of vehicle were added. Twenty-four hours after the addition of the medicaments, neurite length of each neuron was measured for the medicament-added group and the no-addition group, and compared. The neurite length was evaluated according to the method of Neuman et al. (Neuman, H. R. et al., J. Neurosci., 22, pp. 854-862, 2002).

[4] = tested on: intraocular pressure; test: Intraocular pressure reduction enhancing action, combination with jointly-used drug (Test Example 13, rabbits); assay type: in vivo; conditions: jointly-used drug isopropylunoprostone, dorzolamide hydrochloride, bunazosin hydrochloride or timolol maleate
Text: For evaluation of intraocular pressure reduction enhancing action of a combination of the compound of the present invention and a jointly-used drug other than latanoprost, rabbits were used as experimental animals, and for evaluation of intraocular pressure reduction enhancing action of a combination of the compound of the present invention and latanoprost, monkeys were used. Naturalization of the rabbits, method for measuring intraocular pressure, and preparation of liquid for eye drop were according to those of Test Example 4. The rabbits were divided into a control group, instillation group for test compound solution alone (single active ingredient preparation group 1), instillation group for jointly-used drug alone (single active ingredient preparation group 2), and instillation group for jointly-used drug and test compound solution (combination use group). After initial values of intraocular pressure of the rabbits in each group were measured, 50 μL of a test compound solution in physiological saline at various concentrations was dropped to the eyes of the rabbits of the single active ingredient preparation group 1 and the combination use group, and physiological saline of the same volume was dropped to the eyes of the rabbits of the control group and the single active ingredient preparation group 2. […] Then, the intraocular pressure was measured in time course for each group. […]

[5] = tested on: thoracic aorta; test: Vasoconstriction inhibitory action (Test Example 2); design: species or system Rats (Wistar); conditions: aorta constricted with phenylephrine (1 μM), test compound (1 μM)
Text: Rats (Wistar, 11-week old) were bleeded to death and laparotomized to take out the thoracic aorta. That aorta was cut into a ring of a length of about 3 mm in a conventional manner (Asano, T., et al., J. Pharmacol. Exp. Ther., 241, pp. 1033-1040 (1987)) and hung in 10-ml organ bath filled with Krebs-Hensright nutrient solution bubbled with a mixed gas of 95% O2 and 5% CO2. One end of the blood vessel was connected to an isometric transducer (FD Pickup TB-912T, Nihon Kohden) and applied with 2.5 g of resting tension, and constriction and relaxation reactions of the aorta were recorded.
The aorta was constricted with phenylephrine (1 μM, Sigma) and then added with a test compound (1 μM), and the vasoconstriction inhibitory action thereof was observed. The vasoconstriction inhibitory actions of the test compounds were calculated as relaxation ratios, which were based on the vasoconstriction with phenylephrine observed immediately before the addition of the test compounds taken as 100%.

[6] = tested on: trachea; test: Tracheal relaxation action (Test Example 11); design: species or system Hartley guinea pigs; conditions: constricted with 10 μM histamine
Method: Hartley guinea pigs (male, 300 to 600 g) were bled to death, and each trachea was extracted. The trachea was first cut on the pair of smooth muscles side along the direction parallel to the smooth muscles, then cut along the cartilage to prepare a sample in the form of a strip having a width of about 2 to 3 mm. After removing […], the sample was suspended with a static load of […] in a Magnus bath containing Krebs-Henseleit solution of 37° C. bubbled with a mixed gas of 95% O2 and 5% CO2. Generated tension was recorded on a recorder via an isometric transducer (FD Pickup TB-612T, Nihon Kohden).
After suspending the sample, and waiting for 1 hour or more until a stable ground line was obtainable, a constriction substance was administered, and then the experiment was started after reproducible constriction was obtainable. During this procedure, the solution in the Magnus bath was changed every about 30 minutes. The sample was constricted with 10 μM histamine, and after the time point that the generated tension was stabilized, a test drug was cumulatively administered at various concentrations to examine change in tension of the sample.

[7] = tested on: lipopolysaccharide-induced inflammation; test: Acute respiratory tract inflammation suppressing action (Test Example 8); assay type: in vivo, BALB/c female mice; conditions: LPS inhalation; for acute respiratory tract inflammation, total infiltrated leucocyte number (WBC): test compound by infusion pump; for acute respiratory tract inflammation, total infiltrated leucocyte (WBC) number: test compound by nebulizer inhalation over 10 minutes
Text: According to Gonzales de Moraes, V L., et al., Br. J. Pharmacol., 123, pp. 631-6, 1998, suppressing action on pulmonary inflammation was studied. BALB/c female mice (7-week old) were used for the test, as the compound administration group and positive control group, each consisting of 7 mice, as well as the negative control group consisting of 5 mice. For induction of inflammation, a 0.03% physiological saline solution of a lipopolysaccharide (LPS, a mixture derived from Escherichia coli O55 and B5 strains, Sigma) was used. A test compound was dissolved in physiological saline to prepare solutions of various concentrations. […] Then, 1 minute after the completion of the inhalation of the lipopolysaccharide solution, the animals were administered with a solution of test compound at various concentrations over 10 minutes by inhalation using the aforementioned nebulizer. The mice of the positive control group were administered with the same volume of physiological saline instead of the test compound solution over 10 minutes by inhalation. The mice of the negative control group were inhaled with physiological saline instead of the lipopolysaccharide solution by inhalation, and then administered with the same volume of physiological saline instead of the test compound solution by inhalation. Three hours after the administration of the test compound, pulmonary cavities of the test animals were washed with physiological saline, and the total infiltrated leucocyte (WBC) number was counted.
Further, after starting the administration of the test compound solution by using an infusion pump, the mice of the drug administration group was inhaled with the lipopolysaccharide solution over 10 minutes by the aforementioned method to induce inflammation. At the same time, the mice of the positive control group were administered with the same volume of physiological saline instead of the test compound, and inflammation was induced by the aforementioned method. For the mice of the negative control group, the same procedure was performed by using physiological saline instead of the test compound, and physiological saline instead of the lipopolysaccharide solution. Three hours after the induction of respiratory tract inflammation, pulmonary cavities of the test animals were washed with physiological saline, and the total infiltrated leucocyte number (WBC) was counted.

[8] = tested on: histamine-induced constriction of respiratory tract; test: Action of suppressing respiratory tract constriction induced by constriction elicitor (Test Example 12); assay type: in vivo, Hartley guinea pigs; conditions: 100 μl test compound solution sprayed onto the respiratory tract
[9] = tested on: OVA-induced respiratory tract inflammation; test: Chronic respiratory tract inflammation suppressing action (Test Example 7); assay type: in vivo, BALB/c female mice; conditions: administration by infusion pump once a day for 5 days
Method: According to Henderson, W. R., et al., Am. J. Respir. Cric. Care Med., 165(1), 108-116 (2002), suppressing action on bronchial inflammation was confirmed. BALB/c female mice (7-week old) were used for the test, which were grouped into a negative control group, a positive control group, and a drug administration group. The mice of each group were intraperitoneally administered with ovalbumin (OVA, 100 ng, Sigma) and 1 mg of aluminum hydroxide for initial immunization, and after 2 weeks, they are subcutaneously administered with 10 μg of OVA as additional immunization. In the following experiments, test compounds are used as a solution obtained by dissolving each compound in water containing 0.5% carboxymethylcellulose. […]
Twenty four hours after the final OVA inhalation or inhalation of physiological saline, pulmonary cavities of the test animals were washed with physiological saline containing 1% BSA, and the total infiltrated white blood cells (WBC) were counted. […]
Twenty four hours after the final drug administration, pulmonary cavities of the test animals were washed with physiological saline, and the total infiltrated white blood cells (WBC) were counted.

Compound | respiratory tract constriction suppression action by inhalation [1] | respiratory tract constriction suppressing action [1] | intraocular pressure reducing action [2] | neurite outgrowth [3] | intraocular pressure reducing action, combination use group versus single active ingredient preparation groups 1 and 2 [4] | vasoconstriction inhibitory action [5] | suppression of constriction of the trachea sample [6] | acute respiratory tract inflammation, total infiltrated leucocyte number (WBC) [7] | acute respiratory tract inflammation, total infiltrated leucocyte (WBC) number [7] | suppression of constriction of respiratory tract induced by histamine [8] | chronic respiratory tract inflammation, total infiltrated white blood cells (WBC) [9]
FC1CNCCC1N1CCc2cncc3cccc1c23 (stereo not shown) | significantly improved the constriction of respiratory tract | significant respiratory tract constriction suppressing action | significant intraocular pressure reducing action | induced significant neurite outgrowth | Enhancement of the intraocular pressure reducing action was also confirmed | had vasoconstriction inhibitory action | significantly suppressed constriction of the trachea sample | significantly improved the pathological conditions | significantly improved the pathological conditions | significantly suppressed the constriction of respiratory tract | significantly improved the pathological conditions
CN(CCO)C1CCC(N2CCc3cncc4cccc2c34)CC1 (stereo not shown) | significantly improved the constriction of respiratory tract | significant respiratory tract constriction suppressing action | significant intraocular pressure reducing action | induced significant neurite outgrowth | Enhancement of the intraocular pressure reducing action was also confirmed | had vasoconstriction inhibitory action | significantly suppressed constriction of the trachea sample | significantly improved the pathological conditions | significantly improved the pathological conditions | significantly suppressed the constriction of respiratory tract | significantly improved the pathological conditions
